{
  "source": "ChEMBL document CHEMBL1156004",
  "about": "“Pyrazolopyrimidines and pyrazolotriazines with potent activity against herpesviruses” (Bioorg Med Chem Lett, 2009)",
  "data": [
    {"system": "not listed separately", "experiment": "Half life in Sprague-Dawley rat at 1 mg/kg, iv and po", "type": "ADME, organism-based", "parameters": "dose 1 mg/kg, route oral", "details": "in vivo", "units": {"half-life": "h"}, "values": [
      {"smiles": "Fc1ccc(-c2nn3c(NC4CCCC4)nccc3c2-c2ccnc(NC3CCCC3)n2)cc1", "half-life": 2.5}
    ]},
    {"system": "Rattus norvegicus", "experiment": "Volume of distribution in Sprague-Dawley rat at 1 mg/kg, iv and po", "type": "ADME, organism-based", "parameters": "dose 1 mg/kg, route oral", "details": "in vivo", "units": {"Vd": "L/kg"}, "values": [
      {"smiles": "Fc1ccc(-c2nn3c(NC4CCCC4)nccc3c2-c2ccnc(NC3CCCC3)n2)cc1", "Vd": 1.2}
    ]},
    {"system": "not listed separately", "experiment": "Cmax in Sprague-Dawley rat at 1 mg/kg, iv and po after 30 mins", "type": "ADME, organism-based", "parameters": "dose 1 mg/kg, route oral", "details": "in vivo", "units": {"Cmax": "nM"}, "values": [
      {"smiles": "Fc1ccc(-c2nn3c(NC4CCCC4)nccc3c2-c2ccnc(NC3CCCC3)n2)cc1", "Cmax": 300}
    ]},
    {"system": "not listed separately", "experiment": "Antiviral activity against HSV1 SC16 infected in african green monkey Vero cells by hybrid capture method", "type": "functional, cell-based, Herpes simplex virus (type 1 / strain SC16)", "details": "Human alphaherpesvirus 1, Vero", "units": {"IC50": "µM"}, "values": [
      {"smiles": "Fc1ccc(-c2nn3c(N4CCCCC4)nccc3c2-c2ccnc(NC3CCCC3)n2)cc1", "IC50": 0.98},
      {"smiles": "c1ccc(-c2nn3c(NC4CCCC4)ncnc3c2-c2ccnc(NC3CCCC3)n2)cc1", "IC50": 6.4},
      {"smiles": "CC(C)COc1ccc(-c2nn3c(NC4CCCC4)nccc3c2-c2ccnc(NC3CCCC3)n2)cc1", "IC50": 0.61},
      {"smiles": "Clc1cccc(-c2nn3c(NC4CCCC4)nccc3c2-c2ccnc(NC3CCCC3)n2)c1", "IC50": 0.46},
      {"smiles": "COCCOc1ccc(-c2nn3c(NC4CCCC4)nccc3c2-c2ccnc(NC3CCCC3)n2)cc1", "IC50": 1.12},
      {"smiles": "Fc1ccc(-c2nn3c(N4CCCC4)nccc3c2-c2ccnc(NC3CCCC3)n2)cc1", "IC50": 1.9},
      {"smiles": "CC(C)(C)Nc1nccc2c(-c3ccnc(NC4CCCC4)n3)c(-c3ccc(F)cc3)nn12", "IC50": 6.61},
      {"smiles": "CCCCOc1ccc(-c2nn3c(NC4CCCC4)nccc3c2-c2ccnc(NC3CCCC3)n2)cc1", "IC50": 0.47},
      {"smiles": "c1cc(NC2CCCC2)n2nc(-c3ccc(OCC4CC4)cc3)c(-c3ccnc(NC4CCCC4)n3)c2c1", "IC50": 0.17},
      {"smiles": "COc1ccc(-c2nn3c(NC4CCCC4)cccc3c2-c2ccnc(NC3CCCC3)n2)cc1", "IC50": 0.22},
      {"smiles": "Nc1nc2c(ncn2COCCO)c(=O)[nH]1", "note": "[ACYCLOVIR]", "IC50": 0.39},
      {"smiles": "c1cc(-c2c(-c3ccc(OCC4CC4)cc3)nn3c(NC4CCCC4)nccc23)nc(NC2CCCC2)n1", "IC50": 0.69},
      {"smiles": "COCCNc1nccc2c(-c3ccnc(NC4CCCC4)n3)c(-c3cccc(Cl)c3)nn12", "IC50": 0.3},
      {"smiles": "Clc1cccc(-c2nn3c(N4CCOCC4)nccc3c2-c2ccnc(NC3CCCC3)n2)c1", "IC50": 0.2},
      {"smiles": "CCCOc1ccc(-c2nn3c(NC4CCCC4)nccc3c2-c2ccnc(NC3CCCC3)n2)cc1", "IC50": 0.54},
      {"smiles": "c1ccc(-c2nn3c(NC4CCCC4)cccc3c2-c2ccnc(NC3CCCC3)n2)cc1", "IC50": 0.62},
      {"smiles": "Fc1ccc(-c2nn3c(NC4CCCC4)cccc3c2-c2ccnc(NC3CCCC3)n2)cc1", "IC50": 0.26},
      {"smiles": "Oc1ccc(-c2nn3c(NC4CCCC4)nccc3c2-c2ccnc(NC3CCCC3)n2)cc1", "IC50": 4},
      {"smiles": "COc1ccc(-c2nn3c(NC4CCCC4)nccc3c2-c2ccnc(NC3CCCC3)n2)cc1", "IC50": 0.28},
      {"smiles": "Fc1ccc(-c2nn3c(NC4CCCC4)cc(NC4CCCC4)cc3c2-c2ccnc(NC3CCCC3)n2)cc1", "IC50": 0.24},
      {"smiles": "COc1ccc(-c2nn3c(NC4CCCC4)ccnc3c2-c2ccnc(NC3CCCC3)c2)cc1", "IC50": 0.6},
      {"smiles": "Fc1ccc(-c2nn3c(NC4CCCC4)ccnc3c2-c2ccnc(NC3CCCC3)c2)cc1", "IC50": 1.2},
      {"smiles": "COc1ccc(-c2nn3c(NC4CCCC4)ccnc3c2-c2ccnc(NC3CCCC3)n2)cc1", "IC50": 2.4},
      {"smiles": "c1ccc(-c2nn3c(NC4CCCC4)ccnc3c2-c2ccnc(NC3CCCC3)c2)cc1", "IC50": 0.3},
      {"smiles": "Fc1ccc(-c2nn3c(NC4CCCC4)nccc3c2-c2ccnc(NC3CCCC3)n2)cc1", "IC50": 0.17},
      {"smiles": "c1ccc(-c2nn3c(NC4CCCC4)nc(NC4CCCC4)nc3c2-c2ccnc(NC3CCCC3)c2)cc1", "IC50": 0.12}
    ]},
    {"system": "not listed separately", "experiment": "Oral bioavailability in Sprague-Dawley rat at 1 mg/kg", "type": "ADME, organism-based", "details": "in vivo", "units": {"bioavailability": "%"}, "values": [
      {"smiles": "Fc1ccc(-c2nn3c(NC4CCCC4)nccc3c2-c2ccnc(NC3CCCC3)n2)cc1", "bioavailability": 24}
    ]},
    {"system": "not listed separately", "experiment": "Cytotoxicity against african green monkey Vero cells", "type": "cell-based", "details": "chlorocebus sabaeus", "units": {"CC50": "µM"}, "values": [
      {"smiles": "Fc1ccc(-c2nn3c(N4CCCCC4)nccc3c2-c2ccnc(NC3CCCC3)n2)cc1", "CC50": "> 40"},
      {"smiles": "c1ccc(-c2nn3c(NC4CCCC4)ncnc3c2-c2ccnc(NC3CCCC3)n2)cc1", "CC50": "> 40"},
      {"smiles": "CC(C)COc1ccc(-c2nn3c(NC4CCCC4)nccc3c2-c2ccnc(NC3CCCC3)n2)cc1", "CC50": "> 40"},
      {"smiles": "Clc1cccc(-c2nn3c(NC4CCCC4)nccc3c2-c2ccnc(NC3CCCC3)n2)c1", "CC50": "> 40"},
      {"smiles": "COCCOc1ccc(-c2nn3c(NC4CCCC4)nccc3c2-c2ccnc(NC3CCCC3)n2)cc1", "CC50": "> 40"},
      {"smiles": "Fc1ccc(-c2nn3c(N4CCCC4)nccc3c2-c2ccnc(NC3CCCC3)n2)cc1", "CC50": "> 40"},
      {"smiles": "CC(C)(C)Nc1nccc2c(-c3ccnc(NC4CCCC4)n3)c(-c3ccc(F)cc3)nn12", "CC50": "> 40"},
      {"smiles": "CCCCOc1ccc(-c2nn3c(NC4CCCC4)nccc3c2-c2ccnc(NC3CCCC3)n2)cc1", "CC50": "> 40"},
      {"smiles": "c1cc(NC2CCCC2)n2nc(-c3ccc(OCC4CC4)cc3)c(-c3ccnc(NC4CCCC4)n3)c2c1", "CC50": "> 40"},
      {"smiles": "COc1ccc(-c2nn3c(NC4CCCC4)cccc3c2-c2ccnc(NC3CCCC3)n2)cc1", "CC50": "> 100"},
      {"smiles": "Nc1nc2c(ncn2COCCO)c(=O)[nH]1", "note": "[ACYCLOVIR]", "CC50": "> 200"},
      {"smiles": "c1cc(-c2c(-c3ccc(OCC4CC4)cc3)nn3c(NC4CCCC4)nccc23)nc(NC2CCCC2)n1", "CC50": "> 40"},
      {"smiles": "COCCNc1nccc2c(-c3ccnc(NC4CCCC4)n3)c(-c3cccc(Cl)c3)nn12", "CC50": "> 40"},
      {"smiles": "Clc1cccc(-c2nn3c(N4CCOCC4)nccc3c2-c2ccnc(NC3CCCC3)n2)c1", "CC50": "> 40"},
      {"smiles": "CCCOc1ccc(-c2nn3c(NC4CCCC4)nccc3c2-c2ccnc(NC3CCCC3)n2)cc1", "CC50": "> 20"},
      {"smiles": "c1ccc(-c2nn3c(NC4CCCC4)cccc3c2-c2ccnc(NC3CCCC3)n2)cc1", "CC50": "> 40"},
      {"smiles": "Fc1ccc(-c2nn3c(NC4CCCC4)cccc3c2-c2ccnc(NC3CCCC3)n2)cc1", "CC50": "> 160"},
      {"smiles": "Oc1ccc(-c2nn3c(NC4CCCC4)nccc3c2-c2ccnc(NC3CCCC3)n2)cc1", "CC50": 27},
      {"smiles": "COc1ccc(-c2nn3c(NC4CCCC4)nccc3c2-c2ccnc(NC3CCCC3)n2)cc1", "CC50": "> 40"},
      {"smiles": "Fc1ccc(-c2nn3c(NC4CCCC4)cc(NC4CCCC4)cc3c2-c2ccnc(NC3CCCC3)n2)cc1", "CC50": "> 40"},
      {"smiles": "COc1ccc(-c2nn3c(NC4CCCC4)ccnc3c2-c2ccnc(NC3CCCC3)c2)cc1", "CC50": 10},
      {"smiles": "Fc1ccc(-c2nn3c(NC4CCCC4)ccnc3c2-c2ccnc(NC3CCCC3)c2)cc1", "CC50": 16},
      {"smiles": "COc1ccc(-c2nn3c(NC4CCCC4)ccnc3c2-c2ccnc(NC3CCCC3)n2)cc1", "CC50": 32},
      {"smiles": "c1ccc(-c2nn3c(NC4CCCC4)ccnc3c2-c2ccnc(NC3CCCC3)c2)cc1", "CC50": 14},
      {"smiles": "Fc1ccc(-c2nn3c(NC4CCCC4)nccc3c2-c2ccnc(NC3CCCC3)n2)cc1", "CC50": "> 40"},
      {"smiles": "c1ccc(-c2nn3c(NC4CCCC4)nc(NC4CCCC4)nc3c2-c2ccnc(NC3CCCC3)c2)cc1", "CC50": "> 40"}
    ]}
  ]
}
